2 compounds from patent US8957019B2, “Oligopeptide for treating liver fibrosis and/or treating hepatitis B and/or improving liver function” (priority 2011, dated 2015) can be followed below.

Experiment [1] concerns mice with liver injury induced by carbon tetrachloride. The experiment in a line: acute liver injury of mice induced by carbon tetrachloride. The note with it: for serum ALT activity / serum AST activity: blood 12 h after CCl4; for serum ALT activity / serum AST activity / GSH-PX activity of liver tissue / MDA content of liver tissue: x ± s, n = 12; for GSH-PX activity of liver tissue / MDA content of liver tissue: liver homogenate. The experiment is classed as in vivo, Kunming mice. The protocol:
According to random number table, 60 male Kunming mice were divided into a normal control group, a model control group, a bifendate group, a heptapeptide large dose group and a heptapeptide small dose group, and the latter two groups were administered subcutaneously at 0.17 mg/kg and 0.085 mg/kg, respectively, once every two days for 7 d; the bifendate group was intragastric administered at 100 mg/kg once daily for 7 d; and the normal control group and model control group were administered subcutaneously with the same volume of physiological saline; after 1 h after the last administration, except for the normal control group, other groups were given olive oil solution comprising 0.15% carbon tetrachloride at 5 mL/kg by intraperitoneal injection. Each group was fasted but not restraint from water. Blood was taken from eyeball after 12 h, and the serum was separated for use. The mice were killed after the blood was taken, then dissected and the liver were taken out and homogenized for use. For mice from each group, the ALT, AST activities in the serum, and GSH-Px activity and MDA content in liver tissue were measured according to the kit instruction, and all data were expressed as mean±standard deviation (x±SD), and analysis of variance was used for the hypothesis test of mean value differences between each group.

For experiment [2], the system named is duck hepatitis B virus (DHBV). The class given is in vivo, Beijing ducks. The note with it: for A (3 d after administration was terminated), serum DHBV-DNA level: 3 d after stop; for A (3 d after administration was terminated), serum DHBV-DNA level / A (5 d after administration), serum DHBV-DNA level / A (10 d after administration), serum DHBV-DNA level / A (before administration), serum DHBV-DNA level: x ± s, n = 6; for A (5 d after administration), serum DHBV-DNA level: day 5 of administration; for A (10 d after administration), serum DHBV-DNA level: day 10 of administration; for A (before administration), serum DHBV-DNA level: baseline before administration, absorbance 490 nm. The protocol: 2.1 DHBV infection: Beijing ducks of one-day-old were administered from leg tibia (iv) with high DHBV-DNA positive duck serum. Blood was taken 7 d after infection, followed by the serum being separated and kept at -70° C.
2.2 experiment for pharmaceutical treatment: the DHBV infected ducks were divided into groups randomly, and for the heptapeptide administration groups, 0.5 mg/Kg and 1 mg/Kg were administered by subcutaneous injection, once every two days for 10 d, respectively. As for the virus control group, physiological saline was substituted for drugs. […] Venous blood was taken from the duck leg tibia before administration, on day 5 of administration, on day 10 of administration and 3 d after the administration was stopped. The serum was separated and kept at -70° C. for inspection.
2.3 detecting method: the duck serum for inspection above mentioned was taken and the dynamic level of DHBV-DNA in the serum was detected by simultaneous spotting each batch. DHBV-DNA probe was tagged with 32 p according to the instructions of nick translation kits, and then dot blot hybridization with the duck serum was carried out. The spots on the film were detected by radioautography, and the absorbance (A) (490 nm) was measured. Then density of serum DHBV-DNA was calculated by using the A value of hybridization spots as the level of DHBV-DNA in sample.
2.4 efficacy calculation: the x±s of serum DHBV-DNA levels at different time point for each group was calculated, and it is carried out to compare the states before and after administration for each group by using paired t-test. The inhibition ratio of DHBV-DNA was calculated and the dynamic change of the duck serum DHBV-DNA inhibition ratio for each group was compared. The administration groups were compared with the virus control group by using group t-test. The DHBV-DNA inhibition ratio=(A value before administration-A value after administration)/A value before administrationx100%.

Experiment [3] concerns rats with liver fibrosis. Nature of the experiment: CCl4 liver fibrosis model of rats. The experiment is classed as in vivo, SD rats. The note with it: for collogen area of liver tissue / serum ALT level / serum AST level: 8 weeks, x ± s, n = 12. Here is the method: 2. Methods: 48 rats were randomly divided into a control group, a model group, a heptapeptide large dose group and a heptapeptide small dose group, each group contains 12 rats. CCI4was formulated into 40% solution with olive oil, and the solution was then injected subcutaneously to the animals at 5 ml/kg twice a week for 8 weeks; the intervention group with GAGPHGG was given the heptapeptide subcutaneously (the concentrations was 0.12 mg/kg and 0.06 mg/kg, respectively, once every two days, 8 weeks) while the model was setting up. The animals of each group were killed at 48 h after the last injection of CCI4, and then serum and liver tissue were taken for detection. The serum ALT, AST and TGFβ1 level were measured according to the kit instruction, and the liver tissue sample was fixed with neutral formalin solution and imbedded with paraffin. 5 ttm tissue section was made by using glass slide coated with polylysine, and it was then stained with HE and Masson triplication collogen for histopathological examination.

[4] abbreviates: 100 mg/kg intragastric once daily for 7 d.
[5] abbreviates: 0.5 mg/kg s.c. once every two days.
Setting [6] is: 0.085 mg/kg s.c. once every two days for 7 d.
[7] abbreviates: 0.17 mg/kg s.c. once every two days for 7 d.
Where [8] appears, read: large dose and small dose groups, P<0.01.
Setting [9] is: 0.06 mg/kg s.c. once every two days.
[10] abbreviates: 0.12 mg/kg s.c. once every two days.
Where [11] appears, read: heptapeptide large dose, P<0.01.

Where two headings read alike, the source gives them in different places. Marks after values point to notes of the source that are not given here. Peptide text beside a SMILES is read from it.

`COC(=O)c1cc(OC)c2c(c1-c1c(C(=O)OC)cc(OC)c3c1OCO3)OCO2` [biphenyldicarboxylate, bifendate, reference compound]: in experiment [1] (setting [4]), the “serum ALT activity” value stood at 92.36 ± 35.27 U/L, the “serum AST activity” value was determined as 156.24 ± 34.12 U/L, the “GSH-PX activity of liver tissue” value was determined as 296.82 ± 18.31 µmol/g and the “MDA content of liver tissue” value stood at 5.29 ± 1.25 µmol/g.

Consider `C[C@H](NC(=O)CN)C(=O)NCC(=O)N1CCC[C@H]1C(=O)N[C@@H](Cc1c[nH]cn1)C(=O)NCC(=O)NCC(=O)O` [heptapeptide, Gly-Ala-Gly-Pro-His-Gly-Gly] (H-GAGPHGG-OH; N-terminus assumed), for which the “A (3 d after administration was terminated), serum DHBV-DNA level” value in experiment [2] (0.5 mg/kg s.c. once every two days for 10 d) is 1.184 ± 0.19. In experiment [2] (setting [5]), the “A (5 d after administration), serum DHBV-DNA level” value is listed as 1.239 ± 0.16 and the “A (10 d after administration), serum DHBV-DNA level” value is reported as 1.198 ± 0.18. The “inhibition of duck hepatitis B virus (conclusion)” value in experiment [2] (1 mg/kg) was “can inhibit duck hepatitis B virus to some extent”. In addition, the “A (3 d after administration was terminated), serum DHBV-DNA level” value in experiment [2] (1 mg/kg s.c. once every two days for 10 d, P < 0.01 vs control) is recorded as 0.884 ± 0.16. In experiment [2] (1 mg/kg s.c. once every two days), the “A (5 d after administration), serum DHBV-DNA level” value worked out at 1.204 ± 0.21. Besides, the “A (10 d after administration), serum DHBV-DNA level” value in experiment [2] (1 mg/kg s.c. once every two days, P < 0.01 vs control) stood at 0.893 ± 0.13. For the same compound, the “A (before administration), serum DHBV-DNA level” value in experiment [2] (heptapeptide 0.5 mg/kg s.c. once every two days for 10 d) came to 1.286 ± 0.12. Moreover, in experiment [2] (heptapeptide 1 mg/kg s.c. once every two days for 10 d), the “A (before administration), serum DHBV-DNA level” value came to 1.274 ± 0.14. Also, in experiment [1] (setting [6]), the “serum ALT activity” value is reported as 123.24 ± 19.73 U/L, the “serum AST activity” value amounted to 186.97 ± 37.56 U/L, the “GSH-PX activity of liver tissue” value worked out at 267.18 ± 32.13 µmol/g and the “MDA content of liver tissue” value amounted to 6.48 ± 1.65 µmol/g. Also, in experiment [1] (setting [7]), the “serum ALT activity” value stood at 86.52 ± 28.72 U/L, the “serum AST activity” value is listed as 148.62 ± 31.25 U/L, the “GSH-PX activity of liver tissue” value stood at 308.28 ± 38.54 µmol/g and the “MDA content of liver tissue” value amounted to 2.75 ± 1.36 µmol/g. In addition, the “serum ALT, AST activities compared with model control group” value in experiment [1] (large dose (0.17 mg/kg) and small dose (0.085 mg/kg) groups, P <0.01) is given as “declined significantly”. Moreover, in experiment [1] (setting [8]), the “liver tissue GSH-Px activities compared with model control group” value was “significantly higher than that of the model control group” and the “liver tissue MDA content compared with model control group” value is “significantly lower than that of the model control group”. The “protection for acute liver injury (conclusion)” value in experiment [1] (mice, carbon tetrachloride) is “presents protection for the acute liver injury resulted from carbon tetrachloride”. In experiment [3] (setting [9]), the “collogen area of liver tissue” value was 380.82 ± 78.89 μm^2, the “serum ALT level” value is on record as 148.24 ± 32.52 U/L and the “serum AST level” value was determined as 180.35 ± 28.49 U/L. In experiment [3] (setting [10]), the “collogen area of liver tissue” value is given as 138.12 ± 62.58** μm^2, the “serum ALT level” value was 96.37 ± 35.12 U/L and the “serum AST level” value was 108.75 ± 42.21 U/L. In addition, in experiment [3] (setting [11]), the “mean area of liver collagen compared with model group” value was “also decreased significantly” and the “serum TGFβ1 level compared with model group” value was “decreased significantly”. Also, the “serum TGFβ1 level and liver collagen area compared with model group” value in experiment [3] (heptapeptide small dose group) was “had a decreasing trend, but not statistically significant”. Further, in experiment [3] (large dose (0.12 mg/kg) and small dose (0.06 mg/kg) groups, P<0.01), the “ALT and AST levels compared with model control group” value was “significantly declined”. Further, the “anti-liver fibrosis effect (conclusion)” value in experiment [3] (rats, CCl4) is “has some anti-liver fibrosis effect”.
